Data published in patent US10336749B2, “Method for the preparation of (4S)-4-(4-cyano-2-methoxyphenyl)-5-ethoxy-2,8-dimethyl-1,4-dihydro-1-6-naphthyridine-3-carboxamide and the purification thereof for use as an active pharmaceutical ingredient” (BAYER PHARMA AKTIENGESELLSCHAFT, priority 2015, dated 2019).

How the values were obtained:
[1] = Storage stability of crystalline polymorph I; type: physicochemical
[2] = Stability and moisture absorption: storage at 85% and 97% rel. humidity, evaluated by DSC, TGA and XRPD; type: physicochemical; conditions: 25° C.; for mass change: after 12 months
Experimental: Stability and Moisture Absorption Samples of compound of the formula (I) in crystalline form of polymorph I were stored at 85% and 97% rel. humidity (25° C.). The samples were evaluated after 12 months by DSC, TGA and XRPD. After 12 months, a mass change of <0.1% is observed in both cases. […] According to DSC, TGA and XRPD, no difference exists in compound of the formula (I) in crystalline form of polymorph I.

[3] = 85% and 97% rel. humidity, 12 months

CCOc1ncc(C)c2c1[C@H](c1ccc(C#N)cc1OC)C(C(N)=O)=C(C)N2 [(4S)-4-(4-Cyano-2-methoxyphenyl)-5-ethoxy-2,8-dimethyl-1,4-dihydro-1,6-naphthyridine-3-carboxamide]
storage time without any problem ([1]; crystalline form of polymorph I): > 2 years
stability properties ([1]; even at high atmospheric humidity): very good stability properties
absorption of water [2, 3]: no significant absorption of water
difference according to DSC, TGA and XRPD after storage [2, 3]: no difference
mass change ([2]; stored at 85% rel. humidity): < 0.1%
mass change ([2]; stored at 97% rel. humidity): < 0.1%
